Laboratory results as given in US4971975A (priority 1987, dated 1990).
Counter-ions that a name gives are not always drawn. Like-named read-outs stand apart in the source and are kept apart here.

Columns and labels:
[1] = molecular target: muscarinic receptors; experiment: Radio ligand binding: displacement of the muscarinic agonist 3H-OXO-M from rat cerebral cortex membranes; design: species or system Hooded Lister rats; conditions: displacement of agonist 3H-OXO-M (2 nM), 2 mM magnesium chloride, 37° C., 30 min
[2] = molecular target: muscarinic receptors; type: binding, Hooded Lister rats; conditions: displacement of antagonist 3H-QNB (0.27 nM), rat cerebral cortex membranes, 37° C., 30 min

Compound | IC50 [1] [nM] | IC50 [2] [µM]
COC(=O)C12CCCN(CC1)C2 (centres unmarked) [Compound E3, Methyl 1-azabicyclo[3.2.1]oct-5-ylcarboxylate oxalate salt] | 14 | 6.7
COC(=O)C12CCN(CC1)C2 [Compound E6, Methyl 1-azabicyclo[2.2.1]hept-4-ylcarboxylate oxalate salt] | 42 | 29
Cc1noc(C23CCCN(CC2)C3)n1 (centres unmarked) [Compound E10, 5-(3-Methyl-1,2,4-oxadiazol-5-yl)-1-azabicyclo[3.2.1]octane oxalate salt] | 17 | 4
Cc1noc(C23CCN(CC2)C3)n1 [Compound E11, 4-(3-Methyl-1,2,4-oxadiazol-5-yl)-1-azabicyclo[2.2.1]-heptane oxalate salt] | 93 | 14
c1coc(C23CCCN(CC2)C3)n1 (centres unmarked) [Compound E12, 5-(1,3-Oxazol-2-yl)-1-azabicyclo[3.2.1]octane oxalate salt] | 145 | 15
Cc1nnc(C23CCCN(CC2)C3)o1 (centres unmarked) [Compound E13, 5-(2-Methyl-1,3,4-oxadiazol-5-yl)-1-azabicyclo3.2.1]octane oxalate salt] | 39 | 9.4
c1nnc(C23CCCN(CC2)C3)o1 (centres unmarked) [Compound E14, 5-(1,3,4-Oxadiazol-2-yl)-1-azabicyclo[3.2.1]octane oxalate salt] | 160 | 9
c1cc(C23CCCN(CC2)C3)on1 (centres unmarked) [Compound E15, 5-(1,2-Oxazol-5-yl)-1-azabicyclo[3.2.1]octane oxalate salt] | 130 | 7.8
Cc1nnc(C23CCN(CC2)C3)o1 [Compound E17, 4-(2-Methyl-1,3,4-oxadiazol-5-yl)-1-azabicyclo[2.2.1]heptane oxalate salt] | 230 | 48
c1coc(C23CCCN(CC2)C3)c1 (centres unmarked) [Compound E21, 5-(Fur-2-yl)-1-azabicyclo[3.2.1]octane hydrochloride salt] | 34 | 3.8
